Marks after values point to notes of the source that are not given here.
Tests used:
IL-10 KO mice = experiment: Colitis development in vitamin D deficient IL-10 KO mice, compound given in the diet; format: in vivo, mice (C57BL/6); details: 2-MP 720 ng/d; for Development of colitis symptoms (in words): IL-10 KO mice, 2-MD 0.12 ng/d in the diet; for Incidence (# with colitis/n): incidence defined as SI/BW % of greater than 6.5, vitamin D deficient for 5 weeks, then in the diet for the remainder of 9-10 weeks: 1,25(OH)2D3 5 ng/d; for Incidence (# with colitis/n) / SI/BW (small intestine weight / body weight, all mice in the group): 2-MD 0.12 ng/d; for SI/BW (small intestine weight / body weight, all mice in the group): wildtype C57BL/6 values are 5-6, in the diet: 1,25(OH)2D3 5 ng/d
Description: Recently a number of transgenic animals have been developed in which IBD symptoms occur spontaneously. One of the best animal models for Crohn's disease is the IL-10 knockout (KO) mouse (Kuhn et al. 1993, Mac Donald 1994). In conventional animal facilities, the IL-10 KO mice develop enterocolitis within 5-8 weeks of life (Kuhn et al. 1993). Approximately 30% of the IL-10 KO mice die following the development of severe anemia and weight loss (Kuhn et al. 1993). […] In addition mice raised in specific pathogen free facilities develop milder disease which doesn't result in the death of the mice (Kuhn et al. 1993). There are limitations involved in studying IL-10 KO mice as a model of IBD. If vitamin D is a regulator of IL-10 production then the results in this animal model may not represent […] what may happen in a “normal” immune response. However patients with Crohn's disease show similar symptoms, have depressed IL-10 production, and have been successfully treated with IL-10 (Narula et al. 1998).
(§1) Vitamin D deficient IL-10 KO mice were randomly distributed into one of 4 groups. Controls remained vitamin D deficient for the entire 9-10 weeks of the experiment. Mice treated with 1α,25-dihydroxyvitamin D3 (hereinafter “1,25(OH)2D3”) were vitamin D deficient for 5 weeks and then received 5 ng/d in the diet for the remainder of the experiment. 2-MP treated mice were vitamin D deficient for 5 weeks and then received 720 ng/d in the diet for the remainder of the experiment. 2-MD treated mice were vitamin D deficient for 5 weeks and then received 0.12 ng/d in the diet for the remainder of the experiment. VDR KO IL10KO mice were bred with VDR KO mice and the double IL10/VDR KO mice are compared here.

[1] = Serum calcium and body weight of treated vitamin D deficient IL-10 KO mice; format: in vivo, mice (C57BL/6); details: in the diet: 1,25(OH)2D3 5 ng/d, 2-MP 720 ng/d, 2-MD 0.12 ng/d
Method: as §1

IL-10 knock-out mice = details: cited from earlier work

In the case of C=C1[C@H](O)CC(=C/C=C2\CCC[C@]3(C)C(C(C)C)CC[C@@]23C)C[C@H]1O (stereo partly drawn) [2-MP, 1α-hydroxy-2-methylene-19-nor-homopregnacalciferol], the “Development of colitis symptoms (in words)” value (IL-10 KO mice) is reported as “effective at inhibiting and/or preventing the development of colitis symptoms”, the “Incidence (# with colitis/n)” value (IL-10 KO mice) is reported as 0/8^c and the “SI/BW (small intestine weight / body weight, all mice in the group)” value (IL-10 KO mice) is reported as 5.4 ± 0.3^b %. The “BW (body weight)” value [1] was 20.2 ± 0.5^c g.

In the case of C=C1[C@H](O)CC(=C/C=C2\CCC[C@]3(C)C([C@@H](C)CCCC(C)(C)O)CC[C@@]23C)C[C@H]1O (stereo partly drawn) [2-MD, 2-methylene-19-nor-20(S)-1α,25-dihydroxyvitamin D3], the “Development of colitis symptoms (in words)” value (IL-10 KO mice) is reported as “effective at inhibiting and/or preventing the development of colitis symptoms”, the “Incidence (# with colitis/n)” value (IL-10 KO mice) is reported as 0/9^c and the “SI/BW (small intestine weight / body weight, all mice in the group)” value (IL-10 KO mice) is reported as 5.3 ± 0.1^b %. The “BW (body weight)” value [1] was 20.8 ± 1.0^c g.

With C=C1/C(=C\C=C2/CCC[C@]3(C)[C@@H]([C@H](C)CCCC(C)(C)O)CC[C@@H]23)C[C@@H](O)C[C@@H]1O [1,25(OH)2D3, 1α,25-dihydroxyvitamin D3, reference compound] the “Incidence (# with colitis/n)” value (IL-10 KO mice) was 1/28^c, the “SI/BW (small intestine weight / body weight, all mice in the group)” value (IL-10 KO mice) was 5.8 ± 0.3^b % and the “BW (body weight)” value [1] was 20.8 ± 0.5^c g. For the same molecule, the “Serum Calcium” value [1] was 8.9 ± 0.3^a mg % and the “Prevention of IBD (in words)” value (IL-10 knock-out mice) was “can prevent IBD”.
